The source of these data is patent US9499550B2 (BRISTOL-MYERS SQUIBB COMPANY, priority 2012, dated 2016).

Assay [1] relates to HCV genotype 1b (Con1) replicon in HUH-7 cells. Briefly: HCV replicon luciferase reporter assay, genotype 1b. The format is cell-based. Particulars: Hepatitis C virus, Huh-7, 72 h, HCV genotype 1b replicon luciferase assay, 3 days incubation, range class, read-out: LE_1b (EC50, range). In outline: (§1)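 Replicon inhibition for both genotypes was measured as Renilla luciferase signal (EnduRen, 7.5 μM final, 2 h) after 3-day, 37° C exposure of replicon-bearing HUH-7 cells in 4% FCS DMEM, 0.5% DMSO. The 1b construct carries S1179I; the 1a H77 construct carries P1496L and S2204I. Twenty-point, 3-fold dilutions were fitted four-parametrically for EC50, and CC50 was taken from multiplexed Cell Titer-Blue.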
(In general: In antiviral work, replicon cells carry a viral genome segment that copies itself.)

Assay [2] concerns HCV genotype 1a (H77 strain) replicon in HUH-7 cells. The assay is described as follows: HCV replicon luciferase reporter assay, genotype 1a. Particulars: Hepatitis C virus, Huh-7, 72 h, HCV genotype 1a replicon luciferase assay, 3 days incubation, range class, read-out: LE_1a (EC50, range). The assay is classed as cell-based. In outline: as §1

SMILES strings stand for the structures.

As a reminder, the EC50 is the midpoint of the concentration-response curve. `COc1ccc2c(O[C@@H]3C[C@H]4C(=O)N[C@]5(C(=O)NS(=O)(=O)C6(CF)CC6)C[C@H]5/C=C\CC[C@@H](C)C[C@@H](C)[C@H](NC(=O)OC(C)(C)C(F)(F)F)C(=O)N4C3)nc(N(C)C)cc2c1` [Compound 3127, 1,1,1-trifluoro-2-methylpropan-2-yl((2R,6S,7R,9R,13aS,14aR,16aS,Z)-2-((3-(dimethylamino)-6-methoxyisoquinolin-1-yl)oxy)-14a-(((1-(fluoromethyl)cyclopropyl)sulfonyl)carbamoyl)-7,9-dimethyl-5,16-dioxo-1,2,3,5,6,7,8,9,10,11,13a,14,14a,15,16,16a-hexadecahydrocyclopropa[e]pyrrolo[1,2-a][1,4]diazacyclopentadecin-6-yl)carbamate]: the EC50 in assay [1] was less than 5.46 nM; in assay [2], 4.82 to 103 nM.

For the compound `COc1ccc2c(O[C@@H]3C[C@H]4C(=O)N[C@]5(C(=O)NS(=O)(=O)C6(CF)CC6)C[C@H]5/C=C\CC[C@@H](C)C[C@@H](C)[C@H](NC(=O)O[C@H](C)C(F)(F)F)C(=O)N4C3)nc(N(C)C)cc2c1` [Compound 3128, (R)-1,1,1-trifluoropropan-2-yl((2R,6S,7R,9R,13aS,14aR,16aS,Z)-2-((3-(dimethylamino)-6-methoxyisoquinolin-1-yl)oxy)-14a-(((1-(fluoromethyl)cyclopropyl)sulfonyl)carbamoyl)-7,9-dimethyl-5,16-dioxo-1,2,3,5,6,7,8,9,10,11,13a,14,14a,15,16,16a-hexadecahydrocyclopropa[e]pyrrolo[1,2-a][1,4]diazacyclopentadecin-6-yl)carbamate], the values for the EC50 in assay [1] and in assay [2] were less than 5.46 nM and 4.82 to 103 nM, respectively.

Regarding `COc1ccc2c(O[C@@H]3C[C@H]4C(=O)N[C@]5(C(=O)NS(=O)(=O)C6CC6)C[C@H]5/C=C\CC[C@@H](C)C[C@@H](C)[C@H](NC(=O)OC(C)(C)C(F)(F)F)C(=O)N4C3)nc(N(C)C)cc2c1` [Compound 3130, 1,1,1-trifluoro-2-methylpropan-2-yl((2R,6S,7R,9R,13aS,14aR,16aS,Z)-14a-((cyclopropylsulfonyl)carbamoyl)-2-((3-(dimethylamino)-6-methoxyisoquinolin-1-yl)oxy)-7,9-dimethyl-5,16-dioxo-1,2,3,5,6,7,8,9,10,11,13a,14,14a,15,16,16a-hexadecahydrocyclopropa[e]pyrrolo[1,2-a][1,4]diazacyclopentadecin-6-yl)carbamate], the EC50 in assay [1] and in assay [2] was less than 5.46 nM throughout.

For `COc1ccc2c(O[C@@H]3C[C@H]4C(=O)N[C@]5(C(=O)NS(=O)(=O)C6CC6)C[C@H]5/C=C\CC[C@@H](C)C[C@@H](C)[C@H](NC(=O)OC(C)(C)C(C)(F)F)C(=O)N4C3)nc(N(C)C)cc2c1` [Compound 3132, 3,3-difluoro-2-methylbutan-2-yl((2R,6S,7R,9R,13aS,14aR,16aS,Z)-14a-((cyclopropylsulfonyl)carbamoyl)-2-((3-(dimethylamino)-6-methoxyisoquinolin-1-yl)oxy)-7,9-dimethyl-5,16-dioxo-1,2,3,5,6,7,8,9,10,11,13a,14,14a,15,16,16a-hexadecahydrocyclopropa[e]pyrrolo[1,2-a][1,4]diazacyclopentadecin-6-yl)carbamate], the half-maximal effective concentration (EC50) in assay [1] and in assay [2] was less than 5.46 nM throughout.

For the compound `COc1ccc2c(O[C@@H]3C[C@H]4C(=O)N[C@]5(C(=O)NS(=O)(=O)C6CC6)C[C@H]5/C=C\CC[C@@H](C)C[C@@H](C)[C@H](NC(=O)O[C@H](C)C(F)(F)F)C(=O)N4C3)nc(N(C)C)cc2c1` [Compound 3134, (R)-1,1,1-trifluoropropan-2-yl ((2R,6S,7R,9R,13aS,14aR,16aS,Z)-14a-((cyclopropylsulfonyl)carbamoyl)-2-((3-(dimethylamino)-6-methoxyisoquinolin-1-yl)oxy)-7,9-dimethyl-5,16-dioxo-1,2,3,5,6,7,8,9,10,11,13a,14,14a,15,16,16a-hexadecahydrocyclopropa[e]pyrrolo[1,2-a][1,4]diazacyclopentadecin-6-yl)carbamate], the half-maximal effective concentration (EC50) in assay [1] and in assay [2] was less than 5.46 nM throughout.

For `COc1cnc(O[C@@H]2C[C@H]3C(=O)N[C@]4(C(=O)NS(=O)(=O)C5(C)CC5)C[C@H]4/C=C\CC[C@H](C)C[C@@H](C)[C@H](NC(=O)OC(C)(C)C)C(=O)N3C2)c2ccc(N(C)C)cc12` [Compound 3135, tert-butyl ((2R,6S,7R,9S,13aS,14aR,16aS,Z)-2-((6-(dimethylamino)-4-methoxyisoquinolin-1-yl)oxy)-7,9-dimethyl-14a-(((1-methylcyclopropyl)sulfonyl)carbamoyl)-5,16-dioxo-1,2,3,5,6,7,8,9,10,11,13a,14,14a,15,16,16a-hexadecahydrocyclopropa[e]pyrrolo[1,2-a][1,4]diazacyclopentadecin-6-yl)carbamate], the EC50 in assay [1] and in assay [2] was less than 5.46 nM throughout.

For `COc1cnc(O[C@@H]2C[C@H]3C(=O)N[C@]4(C(=O)NS(=O)(=O)C5(C)CC5)C[C@H]4/C=C\CC[C@@H](C)C[C@@H](C)[C@H](NC(=O)OC(C)(C)C)C(=O)N3C2)c2ccc(N(C)C)cc12` [Compound 3136, tert-butyl ((2R,6S,7R,9R,13aS,14aR,16aS,Z)-2-((6-(dimethylamino)-4-methoxyisoquinolin-1-yl)oxy)-7,9-dimethyl-14a-(((1-methylcyclopropyl)sulfonyl)carbamoyl)-5,16-dioxo-1,2,3,5,6,7,8,9,10,11,13a,14,14a,15,16,16a-hexadecahydrocyclopropa[e]pyrrolo[1,2-a][1,4]diazacyclopentadecin-6-yl)carbamate], the EC50 in assay [1] and in assay [2] was less than 5.46 nM each time.

`COc1cnc(O[C@@H]2C[C@H]3C(=O)N[C@]4(C(=O)NS(=O)(=O)C5(C)CC5)C[C@H]4/C=C\CC[C@H](C)C[C@@H](C)[C@H](NC(=O)OC(C)(C)C(F)(F)F)C(=O)N3C2)c2ccc(N(C)C)cc12` [Compound 3137, 1,1,1-trifluoro-2-methylpropan-2-yl((2R,6S,7R,9S,13aS,14aR,16aS,Z)-2-((6-(dimethylamino)-4-methoxyisoquinolin-1-yl)oxy)-7,9-dimethyl-14a-(((1-methylcyclopropyl)sulfonyl)carbamoyl)-5,16-dioxo-1,2,3,5,6,7,8,9,10,11,13a,14,14a,15,16,16a-hexadecahydrocyclopropa[e]pyrrolo[1,2-a][1,4]diazacyclopentadecin-6-yl)carbamate]: the EC50 in assay [1] and in assay [2] was less than 5.46 nM throughout.

On to `COc1cnc(O[C@@H]2C[C@H]3C(=O)N[C@]4(C(=O)NS(=O)(=O)C5(C)CC5)C[C@H]4/C=C\CC[C@@H](C)C[C@@H](C)[C@H](NC(=O)OC(C)(C)C(F)(F)F)C(=O)N3C2)c2ccc(N(C)C)cc12` [Compound 3138, 1,1,1-trifluoro-2-methylpropan-2-yl((2R,6S,7R,9R,13aS,14aR,16aS,Z)-2-((6-(dimethylamino)-4-methoxyisoquinolin-1-yl)oxy)-7,9-dimethyl-14a-(((1-methylcyclopropyl)sulfonyl)carbamoyl)-5,16-dioxo-1,2,3,5,6,7,8,9,10,11,13a,14,14a,15,16,16a-hexadecahydrocyclopropa[e]pyrrolo[1,2-a][1,4]diazacyclopentadecin-6-yl)carbamate], for which the EC50 in assay [1] and in assay [2] was less than 5.46 nM in each case.
